Patent publication US12258424B2, “Polypeptides and compositions comprising the same” (priority 2020, dated 2025)
Residues, ends and D or L forms follow the SMILES beside them.

How the values were obtained:
[1] = tested on: 4T1 cancer cell; format: cell-based, mouse; conditions: for Blocking Efficiency (%): 4T1 cancer cell; for IC50: 2 h
[2] = tested on: DU145 cancer cell; format: cell-based, human; conditions: for Blocking Efficiency (%): DU-145 cancer cells; for IC50: 2 h
Description: (§1) Ninety-six-well plates were coated with 100 ng of PD-L1 protein (G&P Biosciences, human PD-L1 ECD, cat #FCL0784B. mouse PD-L1, cat #FCL3502B) and later blocked with 2% BSA for 2 hours at room temperature. Various concentrations of peptides were loaded into the wells and incubated for 1 hour at room temperature. […] Streptavidin-HRP (R & D systems) and chromogenic substrate were added into the wells. OD450 was then recorded and referenced to OD540.
The blocking efficiency of the anti-PD-L1 peptides at 10 μM (FIG. 2c). […] The IC50 of each peptide was also determined using recombinant human PD-L1 protein and DU-145 cancer cells.

[3] = target: T1, hPD-L1 (Homo sapiens, UniProt Q9NZQ7); experiment: Blockade of the PD-1/PD-L1 interaction, plate coated with human PD-L1 protein; format: binding; design: PD-L1 protein (G&P Biosciences, human PD-L1 ECD, cat #FCL0784B); purchased G&P Biosciences FCL0784B (PD-L1); conditions: for Blocking Efficiency (%): human PD-L1 protein
T1 sequence (Q9NZQ7 19-238 limits assumed): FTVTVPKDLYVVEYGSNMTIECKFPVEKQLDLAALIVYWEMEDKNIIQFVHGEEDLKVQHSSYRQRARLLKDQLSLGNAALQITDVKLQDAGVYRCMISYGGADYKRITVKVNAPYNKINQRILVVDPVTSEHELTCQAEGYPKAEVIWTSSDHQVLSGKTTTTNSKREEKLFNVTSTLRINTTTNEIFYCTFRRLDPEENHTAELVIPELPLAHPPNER
Description: as §1

[4] = target: human PD-L1/CD80 interaction (Homo sapiens, UniProt Q9NZQ7); experiment: Blockade of the CD80/PD-L1 interaction; format: binding; conditions: at 10 μM, FIG. 8a
Sequence of human PD-L1/CD80 interaction (Q9NZQ7 19-238 limits assumed): as above

[5] = tested on: Jurkat T cells co-cultured with DU-145 cancer cells; experiment: Jurkat T cell proliferation in co-culture with DU-145 cells (CellTiter-Glo); format: cell-based, human; conditions: peptide 5 μM, 24 hours
Description: Proliferation and Apoptosis Assays. […] Briefly, 3×10^4 Jurkat T cells were cultured alone or co-cultured with 1.5×10^5 DU-145 cancer cells in a 24-well plate for the proliferation assay. For the apoptosis assay, 6×10^4 Jurkat T cells were cultured alone or co-cultured with 3×10^5 DU-145 cancer cells in a 6-well plate. After incubation with the anti-PD-L1 peptides (5 μM) or anti-PD-L1 antibody (1 μM) for 24 hours, Jurkat T cells were harvested from the supernatant. Proliferation of Jurkat cells was determined using the CellTiter-Glo luminescent cell viability assay (Promega, WI), and apoptosis of the cells were determined using the Dead Cell Apoptosis Kit with Annexin V Alexa Fluor® 488 and Propidium Iodide (Thermo-Fisher Scientific, Pittsburgh, PA) as we described before^21.

[6] = target: mPD-L1 (Mus musculus, UniProt Q9EP73); experiment: Blockade of the mouse PD-1/PD-L1 interaction, mouse PD-L1 protein; format: binding; design: purchased G&P Biosciences FCL3502B (PD-L1); conditions: mouse PD-L1 protein
Sequence of mPD-L1 (Q9EP73 19-239 limits assumed): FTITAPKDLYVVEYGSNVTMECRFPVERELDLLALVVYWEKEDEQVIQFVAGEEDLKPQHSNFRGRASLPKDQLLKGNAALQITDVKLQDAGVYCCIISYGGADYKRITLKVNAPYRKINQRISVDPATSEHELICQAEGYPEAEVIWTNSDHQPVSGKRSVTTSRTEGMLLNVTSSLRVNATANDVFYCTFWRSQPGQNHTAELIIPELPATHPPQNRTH
Description: as §1

[7] = target: T2, recombinant human PD-L1 ECD protein (Homo sapiens, UniProt Q9NZQ7); experiment: SPR binding kinetics and affinity to immobilized human PD-L1; conditions: for kon: read-out: Ka
T2 construct: against the recombinant human PD-L1 ECD protein were evaluated using SPR; purchased G&P Biosciences FCL0784B
T2 sequence (Q9NZQ7 19-238 limits assumed): as the sequence (Q9NZQ7 19-238 limits assumed) above
Description: In such aspects, the equilibrium dissociate constant KD value against recombinant human PD-L1 can be determined according to an KD to PD-L1 SPR Assay. The KD to PD-L1 SPR Assay can include the use of Surface Plasmon Resonance (SPR), such as the B14500, Biosensing Instrument, and can include the following procedures. The PD-L1 protein can be diluted to 10 μg/mL with sodium acetate buffer (pH 5.0, GE Healthcare, PA) and covalently coated onto a CM5 sensor chip (CM Dextran Sensor Chip, Biosensing Instrument) using the standard Amine Coupling Kit (GE Healthcare, PA). Approximately 6500 RU of PD-L1 protein are immobilized onto the chip. A second channel is used as a reference. HBS-EP+ buffer (GE Healthcare) can be employed at a flow rate of 60 μL/min. A series of concentrations of each peptide (15, 30, 60, 125, 250, 500, 1000, 5000 and 10,000 nM) is prepared in HBS-EP+ running buffer to obtain the equilibrium dissociation constant (KD) values of the peptides. The CM5 sensor chip can be regenerated with 10 mM NaOH for 20 s. The results can be analyzed using the software of Bi data analysis software.
Evaluation of Binding Kinetics and Affinity By Surface Plasmon Resonance (SPR). Binding affinities of the PD-L1 specific peptides for human PD-L1 protein were determined by SPR (B14500, Biosensing Instrument). PD-L1 protein was diluted to 10 μg/mL with sodium acetate buffer (pH 5.0, GE Healthcare, PA) and covalently coated onto a CM5 sensor chip (CM Dextran Sensor Chip, Biosensing Instrument) using the standard Amine Coupling Kit (GE Healthcare, PA). Approximately 6500 RU of PD-L1 protein were immobilized onto the chip. A second channel was used as a reference. HBS-EP+ buffer (GE Healthcare) was employed at a flow rate of 60 μL/min. A series of concentrations of each peptide (15, 30, 60, 125, 250, 500, 1000, 5000 and 10,000 nM) were prepared in HBS-EP+ running buffer to obtain the equilibrium dissociation constant (KD) values of the peptides. The CM5 sensor chip was regenerated with 10 mM NaOH for 20 seconds. The results were analyzed using the software of Bi data analysis software. Binding affinities of the anti-PD-L1 peptides to BSA was also assessed following the procedure for human PD-L1.

[8] = target: T1, hPD-L1; experiment: PD-1/PD-L1 inhibitor screening ELISA, human proteins; format: binding; design: purchased Acro Biosystems EP-101
Description: (§2) Blocking efficiency at 10 μM/IC50 against human and mouse PD1/PD-L1 (ELISA). […] 100 ng of recombinant human PD-L1 protein was coated in 96-well plates at 4° C. for 16 h with shaking over an orbital shaker. Unbound protein was removed by washing twice with PBS (pH 7.2-7.4), 2% BSA was added for 1.5 h at 37° C. to block the plate. Specific concentrations of the peptides were dispensed into the appropriate wells and incubated for 2 h at 37° C. […] This was followed by the addition of streptavidin-HRP and chromogenic substrate (R & D systems). The color reaction was terminated with 2N H2SO4, absorbance was recorded at OD450 and referenced to OD540.

[9] = target: PD1/PD-L1 (Homo sapiens, UniProt Q9NZQ7); experiment: IC50 and blocking efficiency against PD1/PD-L1 (Table 5); format: binding
Sequence of PD1/PD-L1 (Q9NZQ7 19-238 limits assumed): as above
Description: as §2

[10] = Proteolytic stability in 50% human serum (LC-MS); format: in vitro ADME
Description: Half-life in 50% human serum. Proteolytic stability of the peptides was investigated using LC-MS. Solutions of the anti-PD-L1 peptides were incubated with 50% human serum at […], aliquots were taken at specific time points for processing and subsequent LC-MS analysis.

[11] = tested on: CD8+ T cells in CT26 tumor tissues; experiment: IHC staining of CD8+ T cells in CT26 tumor tissues; format: in vivo, mouse
Description: Immunohistochemistry (IHC) Staining. Tumor tissues were fixed in 10% formalin, embedded in paraffin, sectioned, and mounted on glass slides by Truman Medical Centers Anatomic Pathology Core (Kansas City, MO). The slides were heated in Tris buffer (pH 9.0) for 45 min to recover antigen. After deparaffinization and rehydration, the sections were stained with the anti-mouse CD8 alpha antibody (Abcam, ab209775) overnight at 4° C. The slides were incubated with a biotinylated goat anti-rabbit secondary antibody, followed by the DAB chromogen mixture. Four sections (2 male and 2 female) were imaged in each group. For each section, 3 regions were randomly selected for imaging.

[12] = tested on: IFNγ, PD-L1 and IL-6 in CT26 tumors; experiment: ELISA of IFNγ, PD-L1 and IL-6 in harvested CT26 tumors; format: in vivo, mouse
From the text: (§3) Animal Study. The animal protocol was approved by the University of Missouri-Kansas City, Institutional Animal Care and Use Committee (IACUC). Five-week old male and female Balb/c mice were purchased from Charles Rivers Laboratories (Wilmington, Mass.) and housed in a temperature and humidity controlled room on a 12-hour light-dark cycle. Approximately 5×10^5 CT26 cells were subcutaneously injected into the right flank. The mice were randomly divided into five different groups (10 mice/group, 50% female, 50% male). The mice were intraperitoneally injected with 2 mg/kg peptide daily when the tumor size reached 50-100 mm^3. The anti-mouse PD-L1 antibody (10F.9G2, BioXcell) was administrated as a positive control at a dose of 10 mg/kg every two days. The tumor size was assessed with a caliper and calculated with the formula 0.5×length×width^2. ELISA kits of PD-L1 (Cat #DY1019-05), IFNγ (Cat #DY485-05), and IL-6 (Cat #DY406-05) were used to measure the expressions of PD-L1, IFNγ, and IL-6, respectively, in tumors as per the company's instructions (R & D Systems, Minneapolis, MN).

[13] = tested on: CT26 tumor-bearing Balb/C mice; experiment: Survival of CT26 tumor-bearing Balb/C mice; format: in vivo, mouse
From the text: as §3
In this Example, mice were intraperitoneally injected with the CLP002 (SEQ ID NO:2) and CLP003 (SEQ ID NO:3) peptides daily or the anti-mouse PD-L1 antibody every other day from day 4 to day 17 (see survival curves in FIG. 7a). Specifically, CT26 tumor-bearing Balb/C mice (n=10, 5 male and 5 female) were intraperitoneally injected with the anti-PD-L1 peptides (2 mg/Kg) daily and the anti-mouse PD-L1 antibody (10 mg/Kg) every other day from day 4 to day 17. GraphPad Prism 7 software (San Diego, Calif.) was used for statistical analysis. Comparison of two survival curves were conducted using the Gehan-Breslow-Wilcoxon test. […] By contrast, only 20% of the mice in the CLP002 (SEQ ID NO:2) group were dead by day 17.

[14] = tested on: CT26 colorectal tumor-bearing mouse model; experiment: Anti-tumor activity in CT26 tumor-bearing Balb/C mice; format: in vivo
From the text: as §3
The anti-mouse PD-L1 antibody (BioXcell, 10F.9G2) was administered intraperitoneally every other day at 10 mg/kg. […] In general, CLP002 (SEQ ID NO:2) exerted a better tumor inhibitory effect than CLP003 (SEQ ID NO:3), which was similar to the antibody. […] In FIG. 6e the weight of the tumors harvested at day 14 is shown. The results were represented as the mean±SD (n=10). It is noteworthy that the peptides were screened against the human PD-L1 protein, which, in fact, would compromise the anti-tumor activity of the peptides in a mouse model.

Structure (SMILES) | Blocking Efficiency (%) [1] | IC50 [1] | Blocking Efficiency (%) [2] | Blocking Efficiency (%) [3] | Blocking efficiency against CD80/PD-L1 interaction [4] | Blocking Efficiency (%) [6] | kon [7] | IC50 [2] | also measured
C[C@H](NC(=O)[C@H](CCC(N)=O)NC(=O)[C@H](CC(N)=O)NC(=O)[C@H](C)NC(=O)[C@H](Cc1c[nH]cn1)NC(=O)[C@@H]1CCCN1C(=O)[C@H](CCCNC(=N)N)NC(=O)[C@H](Cc1ccccc1)NC(=O)[C@@H]1CCCN1C(=O)[C@H](Cc1ccc(O)cc1)NC(=O)[C@@H](N)Cc1c[nH]cn1)C(=O)N[C@@H](CO)C(=O)O [CLP001] (H-HYPFRPHANQAS-OH; N-terminus and C-terminus assumed) | 35% | 910 nM | 0% | 0% | approximately 17% | 34% | 5190 M⁻¹ s⁻¹ | – | Blocking of the human PD-1/PD-L1 interaction (in words) ([3]; peptides at 10 μM, FIG. 2c): did not block; Effect on Jurkat T cell proliferation [5]: did not observe the same effect
C[C@@H](O)[C@H](NC(=O)[C@H](Cc1ccc(O)cc1)NC(=O)[C@H](Cc1ccc(O)cc1)NC(=O)[C@H](CO)NC(=O)[C@H](CCCNC(=N)N)NC(=O)[C@H](Cc1c[nH]cn1)NC(=O)[C@@H](N)Cc1c[nH]c2ccccc12)C(=O)N[C@@H](Cc1c[nH]c2ccccc12)C(=O)N[C@@H](CC(N)=O)C(=O)O [CLP2TR3] (H-WHRSYYTWN-OH; N-terminus and C-terminus assumed) | – | – | – | – | – | – | – | – | % Blocking efficiency at 10 μM (ELISA) hPD-L1 [8]: 80%; % Blocking efficiency at 10 μM [9]: 80%; half-life [10]: 15 min
CC(C)C[C@H](NC(=O)[C@H](Cc1c[nH]c2ccccc12)NC(=O)[C@H](CCCNC(=N)N)NC(=O)[C@H](Cc1c[nH]c2ccccc12)NC(=O)[C@H](CC(N)=O)NC(=O)[C@H](Cc1ccc(O)cc1)NC(=O)[C@H](CO)NC(=O)[C@H](Cc1ccccc1)NC(=O)[C@H](Cc1c[nH]cn1)NC(=O)[C@@H](N)Cc1c[nH]c2ccccc12)C(=O)N1CCC[C@H]1C(=O)N1CCC[C@H]1C(=O)O [CLP003] (H-WHFSYNWRWLPP-OH; N-terminus and C-terminus assumed) | 50% | 1000 nM | 56% | – | – | – | 22600 M⁻¹ s⁻¹ | 3050 nM | Density of CD8+ T cells in tumor tissues [11]: significantly increased; IC50 ([3]; plate coated with human PD-L1 protein): 2220 nM; IL-6 expression in tumor tissues [12]: decreased expression of IL-6; Tumor growth in the survival study ([13]; Example 7, individual growth curves): other mice experienced a rapid tumor progression; Mice died on day 17 (in words) ([13]; n=10): only one mouse died on day 17; Survival of tumor-bearing mice ([13]; treatment from day 4 to day 17): modestly improved the survival; Tumor growth ([14]; peptides 2 mg/kg i.p. daily, antibody 10 mg/kg i.p. every other day): effectively suppressed tumor growth; Tumor weights at day 14 ([14]; versus saline group): significantly smaller than the saline group; Kd [7]: 117 nM
CC(C)C[C@H](NC(=O)[C@@H](NC(=O)[C@@H]1CCCN1C(=O)[C@H](CC(C)C)NC(=O)[C@H](CO)NC(=O)[C@@H]1CCCN1C(=O)[C@H](CC(=O)O)NC(=O)[C@H](Cc1c[nH]cn1)NC(=O)[C@H](Cc1ccc(O)cc1)NC(=O)[C@@H](N)CC(=O)O)[C@@H](C)O)C(=O)N[C@@H](CCCNC(=N)N)C(=O)N[C@@H](CCCCN)C(=O)O [CLP004] (H-DYHDPSLPTLRK-OH; N-terminus and C-terminus assumed) | 34% | 730 nM | 60% | 52% | ~27% | 48% | 5140 M⁻¹ s⁻¹ | 200 nM | IC50 [6]: 1910 nM
